# According to the supplement of paper PMC4954754:
# ± gives the uncertainty stated by the source.
# Legend:
# Conditions in all cases: 18 h
# HEK293T-Rex XBP1-RLuc [1] = experiment: EC50 for XBP1-RLuc reporter activation
# Method: (§1)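 Dose-response of hit compounds in HEK293T-Rex cells stably expressing ERSE-FLuc or XBP1-RLuc reporters, 18 hr treatment, 1536-well; luminescence normalised to 500 nM thapsigargin (100%) and DMSO (0%), fitted to give EC50 (M) and maximal activation; '>' marks EC50 above the top tested dose (~17 µM).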
# HEK293T-Rex XBP1-RLuc [2] = experiment: maximal XBP1-RLuc activation from dose-response fit, relative to thapsigargin (% of thapsigargin); higher = stronger activation
# Method: as §1
# HEK293T-Rex ERSE-FLuc [3] = experiment: EC50 for ERSE-FLuc reporter activation
# Method: as §1
# HEK293T-Rex ERSE-FLuc [4] = experiment: maximal ERSE-FLuc activation from dose-response fit, relative to thapsigargin (% of thapsigargin); higher = stronger activation
# Method: as §1
SMILES,EC50 for XBP1-RLuc reporter activation (HEK293T-Rex XBP1-RLuc [1]),maximal XBP1-RLuc activation (HEK293T-Rex XBP1-RLuc [2]),EC50 for ERSE-FLuc reporter activation (HEK293T-Rex ERSE-FLuc [3]),maximal ERSE-FLuc activation (HEK293T-Rex ERSE-FLuc [4])
Cc1ccc(/C=N/NC(=O)c2cccc(Cl)c2)cc1,> 16.9 µM,3.19 ± 1.2,> 16.9 µM,36.9 ± 7.8
Nc1cn(-c2ccccc2)nc1-c1cccs1,3.71 µM,156 ± 4.4,> 19.6 µM,47.7 ± 4.1
O=C(Nc1ccccc1O)c1ccc(NS(=O)(=O)c2cccc3cccnc23)cc1,> 16.9 µM,21.8 ± 6.3,10 µM,85.2 ± 7.5
NC(=O)c1c(NC(=O)c2cccc3ccccc23)sc2c1CCC2,> 16.9 µM,23.1 ± 6.4,> 16.9 µM,21.9 ± 5.8
COc1ccccc1-c1nnc(Nc2nc3c(OC)cccc3s2)o1,> 16.9 µM,12.5 ± 1,> 16.9 µM,32.7 ± 3
N#CC1=C(N)Oc2c(ccc3ccccc23)C1c1ccsc1 (configuration not stated),> 18.3 µM,5.3 ± 5,> 18.3 µM,21.2 ± 5.6
N#CC1=C(N)Oc2c(ccc3ccccc23)C1c1ccccc1 (configuration not stated),> 16.9 µM,7.34 ± 1.6,> 16.9 µM,15.5 ± 0.4
Cc1ccc(O)c(NC(=O)c2cc(-c3ccc(O)cc3)on2)c1,> 16.9 µM,30.8 ± 5.7,9.05 µM,58.9 ± 2.1
CN(C)c1ccc(/C=C(/C#N)C(=O)Nc2ccc(O)cc2)cc1,> 16.9 µM,31 ± 2.4,> 16.9 µM,29.9 ± 4.7
CCn1c(/C(C#N)=C/c2ccc(OC)cc2)nc2ccccc21,> 19.4 µM,5.17 ± 3,> 19.4 µM,30.6 ± 6.3
Oc1ccccc1/C=N\Nc1nc2ccccc2o1,> 17.3 µM,19.8 ± 1.3,> 17.3 µM,12.4 ± 3.9
O=C(N/N=C/c1ccc(Cl)cc1)c1n[nH]c2c1CCCC2,> 16.9 µM,6.88 ± 3.1,> 16.9 µM,21.7 ± 1.7
C(=C\c1ccccc1)/C=N/Nc1nc2ccccc2[nH]1,> 18 µM,22.2 ± 2,> 18 µM,25.5 ± 3.7
COc1cccc(-c2nc3ccc(N)cc3[nH]2)c1,> 16.9 µM,14.7 ± 3.4,> 16.9 µM,20.8 ± 3.1
COc1ccccc1-c1cnnc(N/N=C/c2c[nH]c3ccccc23)n1,> 16.9 µM,29.8 ± 2.1,> 16.9 µM,49.9 ± 8.2
O=C(NCCCn1ccnc1)c1cc(-c2cccs2)on1,> 16.9 µM,12.1 ± 0.83,9.58 µM,89.1 ± 3.8
COc1ccc2[nH]c3c(N4CCCCC4)ncnc3c2c1,> 17.1 µM,9.73 ± 1.4,> 17.1 µM,27.4 ± 2.9
Cc1ccc(NC(=S)NC(=O)C(=O)Nc2ccccc2)cc1,> 16.9 µM,2.05 ± 0.91,> 16.9 µM,6.38 ± 2.8
CC(C)CNC(=O)c1cc(-c2ccc(F)cc2)no1,> 16.9 µM,4.76 ± 1.8,> 16.9 µM,20.8 ± 5.8
O=C1N/C(=C/c2ccc(O)cc2)C(=O)N1c1ccccc1,4.36 µM,76 ± 3.7,3.42 µM,110 ± 11
N/C(=N\N=C\c1ccc(O)c(O)c1)c1nonc1N,> 16.9 µM,41.6 ± 6.1,5.38 µM,96.9 ± 3.7
CCCCNC(=O)c1cc(-c2ccc(F)cc2)on1,> 16.9 µM,9.22 ± 4.7,12.2 µM,68.7 ± 8.5

SMILES,EC50 for XBP1-RLuc reporter activation (HEK293T-Rex XBP1-RLuc [1]),maximal XBP1-RLuc activation (HEK293T-Rex XBP1-RLuc [2]),EC50 for ERSE-FLuc reporter activation (HEK293T-Rex ERSE-FLuc [3]),maximal ERSE-FLuc activation (HEK293T-Rex ERSE-FLuc [4])
CCCCCC(=O)Nc1ccc(C(=O)Nc2ccccc2O)cc1,> 15.6 µM,21.2 ± 1.6,8.09 µM,112 ± 10
Cc1ccccc1-c1cc(=O)c2cc(Cl)ccc2o1,> 17 µM,21.7 ± 1.1,> 17 µM,24.3 ± 3.6
COc1ccc(Nc2nccn3c(-c4ccsc4)cnc23)cn1,> 16.9 µM,8.52 ± 2.1,> 16.9 µM,23.1 ± 0.89
COc1cccc(-c2cc(C(=O)Nc3cc(C)ccc3O)on2)c1,> 16.9 µM,25.6 ± 5.2,8.72 µM,87 ± 20
O=C(N/N=C/c1ccc(O)c(O)c1)c1ccc(Br)cc1,16.8 µM,50.1 ± 4.6,16 µM,51.2 ± 4.4
O=C(NC(c1ccccc1)c1ccccc1)c1csc(-c2cnccn2)n1,> 16.9 µM,43.4 ± 9.4,> 16.9 µM,34.2 ± 3.6
Oc1ccc(-c2csc3nc(-c4ccccc4)nn23)c(O)c1,> 16.9 µM,32.4 ± 1.3,> 16.9 µM,30.1 ± 2.2
COc1ccc(-n2nnnc2SCC(N)=O)c(OC)c1,> 16.9 µM,1.34 ± 2.6,> 16.9 µM,11.9 ± 3.1
Cc1ccc2nc(NC(=O)c3cccc4ccccc34)sc2c1,> 15.1 µM,11.2 ± 1.2,> 15.1 µM,38.8 ± 5.3
O=C(CCCCCCC(=O)Nc1ccccc1)NO,> 16.9 µM,3.17 ± 2.9,6.58 µM,132 ± 25
C=CCNC(=O)c1cc(-c2ccccc2)on1,> 16.9 µM,10.7 ± 4.1,7.45 µM,99.6 ± 17
CC(=O)Nc1ccc2nc(-c3ccc(OC(C)=O)cc3)sc2c1,11.3 µM,67 ± 2.2,> 16.9 µM,15.7 ± 1.8
CC(C)CC(c1nnnn1C1CCCC1)N1CCN(C(=O)c2ccco2)CC1 (configuration not stated),> 16.9 µM,8.89 ± 0.66,> 16.9 µM,14.3 ± 1.5
O=C(Nc1ccc(O)cc1)c1c(O)c2c([nH]c1=O)CCCC2,> 16.1 µM,28.5 ± 3.6,> 16.1 µM,22.3 ± 2.9
COc1ccc(/C=C/c2ccc3cccc(OC(C)=O)c3n2)cc1OC(C)=O,> 16.9 µM,15 ± 2.1,> 16.9 µM,25.7 ± 5.6
CN(C)/C=N/C1=C(C#N)C(c2ccc3c(c2)OCO3)c2ccc3ccccc3c2O1 (configuration not stated),> 16.6 µM,7.29 ± 3.2,> 16.6 µM,21.8 ± 6.6
CCCCNNC(=O)c1ccc(Br)cc1,> 17.4 µM,8.05 ± 3.5,4.91 µM,95.4 ± 25
Cc1nn(-c2ccc(F)cc2)c2ncc(C(=O)NCc3ccco3)c(Cl)c12,12.6 µM,151 ± 6.8,15.3 µM,63.1 ± 4.8
Cc1ccc(/C=N/NC(=O)c2cccc(F)c2)cc1,> 16.9 µM,1.93 ± 2,> 16.9 µM,23.1 ± 1.4
Cc1ccc(O)c(N/C=C/C(=O)c2cccs2)c1,10 µM,56.5 ± 2.8,5.29 µM,225 ± 15
O=C1N/C(=C/c2ccc(O)cc2)C(=O)N1Cc1ccc(Br)cc1,4.02 µM,70.6 ± 14,> 15.8 µM,47.9 ± 1.7
